# According to patent US5393869A, “Parathyroid hormone derivatives” (Takeda Chemical Industries, Ltd., priority 1990, dated 1995):
# Target: T1, PTH receptor (Mus musculus, UniProt P41593)
# T1 construct: a mouse cranial bone-derived osteoblast-like cell strain, MC3T3-EI cells, cultivated on a 96-well multiplate; endogenous in cells; host or cells: MC3T3-E1 mouse osteoblast-like cells
# T1 sequence (P41593 27-591): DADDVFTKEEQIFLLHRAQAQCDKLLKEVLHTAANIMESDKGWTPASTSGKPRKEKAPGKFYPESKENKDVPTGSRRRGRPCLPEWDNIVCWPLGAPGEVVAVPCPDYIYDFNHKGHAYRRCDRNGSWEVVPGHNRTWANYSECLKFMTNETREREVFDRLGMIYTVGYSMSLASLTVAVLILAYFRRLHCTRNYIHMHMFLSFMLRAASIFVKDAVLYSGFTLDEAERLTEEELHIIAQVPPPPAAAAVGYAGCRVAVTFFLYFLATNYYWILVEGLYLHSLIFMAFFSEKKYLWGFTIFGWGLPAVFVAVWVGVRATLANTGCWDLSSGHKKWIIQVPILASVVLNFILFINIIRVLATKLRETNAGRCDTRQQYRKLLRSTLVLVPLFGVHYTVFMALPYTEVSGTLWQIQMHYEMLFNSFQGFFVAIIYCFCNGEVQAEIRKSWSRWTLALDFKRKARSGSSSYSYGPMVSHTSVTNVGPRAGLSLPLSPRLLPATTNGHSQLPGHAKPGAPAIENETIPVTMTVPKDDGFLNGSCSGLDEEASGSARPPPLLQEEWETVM
# Test: cAMP production by PTH (1-34) analogues in MC3T3-EI osteoblast-like cells
# Format: cell-based
# Conditions: cAMP production, 0.01-100 nM analogue, room temperature 30 minutes, hPTH(1-34) = 1.00
# Description: The biological activity of the peptide analogues was evaluated by a modified version of the method reported by Shigeno et al. in The Journal of Biological Chemistry 263, 18369-18377 (1988). A culture solution (Hank's solution, containing 20 mM N-2-hydroxyethylpiperazine-N'-2-ethanesulfonic acid (HEPES), 0.1% bovine serum albumin and 0.5 mM isobutylmethyl-xanthine) containing 0.01, 0.1, 1, 10 or 100 nM analogue was added in an amount of 100 μto a mouse cranial bone-derived osteoblast-like cell strain, MC3T3-EI cells, cultivated on a 96-well multiplate (Nunclon, Nunc), followed by reaction at room temperature for 30 minutes. After addition of 100 μof 0.2N hydrochloric acid, the mixture was immersed in boiling water for 2.5 minutes, and cyclic adenosine monophosphate (cAMP) produced by a PTH receptor was extracted from the cells. The total cAMP in the culture solution and the cells was assayed using a commercial radioimmunoassay kit (cyclic AMP [^125 I] kit "Du Pont-Daiichi", Daiichi Kagaku Yakuhin).
row,Molecule,Biological Activity (Represented by Relative Activity to hPTH(1-34))
1,"CC[C@H](C)[C@H](NC(=O)[C@H](CCC(=O)O)NC(=O)[C@H](CO)NC(=O)[C@@H](NC(=O)[C@@H](N)CO)C(C)C)C(=O)N[C@@H](CCC(N)=O)C(=O)N[C@@H](CC(C)C)C(=O)N[C@@H](CC(C)C)C(=O)N[C@@H](Cc1c[nH]cn1)C(=O)N[C@@H](CC(N)=O)C(=O)N[C@@H](CC(C)C)C(=O)NCC(=O)N[C@@H](CCCCN)C(=O)N[C@@H](Cc1c[nH]cn1)C(=O)N[C@@H](CC(C)C)C(=O)N[C@@H](CC(N)=O)C(=O)N[C@@H](CO)C(=O)N[C@@H](CCSC)C(=O)N[C@@H](CCC(=O)O)C(=O)N[C@@H](CCCNC(=N)N)C(=O)N[C@H](C(=O)N[C@@H](CCC(=O)O)C(=O)N[C@@H](Cc1c[nH]c2ccccc12)C(=O)N[C@@H](CC(C)C)C(=O)N[C@@H](CCCNC(=N)N)C(=O)N[C@@H](CCCCN)C(=O)N[C@@H](CCCCN)C(=O)N[C@@H](CC(C)C)C(=O)N[C@@H](CCC(N)=O)C(=O)N[C@@H](CC(=O)O)C(=O)N[C@H](C(=O)N[C@@H](Cc1c[nH]cn1)C(=O)N[C@@H](CC(N)=O)C(=O)N[C@@H](Cc1ccccc1)C(N)=O)C(C)C)C(C)C [[Leu^8] hPTH (1-34)NH2, (Leu^8)hPTH(1-34)NH2]",0.5
2,"CC[C@H](C)[C@H](NC(=O)[C@H](CCC(=O)O)NC(=O)[C@H](CO)NC(=O)[C@@H](NC(=O)[C@@H](N)CO)C(C)C)C(=O)N[C@@H](CCC(N)=O)C(=O)N[C@@H](CC(C)C)C(=O)N[C@@H](CCSC)C(=O)N[C@@H](Cc1c[nH]cn1)C(=O)N[C@@H](CC(N)=O)C(=O)N[C@@H](CC(C)C)C(=O)N[C@H](CC(C)C)C(=O)N[C@@H](CCCCN)C(=O)N[C@@H](Cc1c[nH]cn1)C(=O)N[C@@H](CC(C)C)C(=O)N[C@@H](CC(N)=O)C(=O)N[C@@H](CO)C(=O)N[C@@H](CCSC)C(=O)N[C@@H](CCC(=O)O)C(=O)N[C@@H](CCCNC(=N)N)C(=O)N[C@H](C(=O)N[C@@H](CCC(=O)O)C(=O)N[C@@H](Cc1c[nH]c2ccccc12)C(=O)N[C@@H](CC(C)C)C(=O)N[C@@H](CCCNC(=N)N)C(=O)N[C@@H](CCCCN)C(=O)N[C@@H](CCCCN)C(=O)N[C@@H](CC(C)C)C(=O)N[C@@H](CCC(N)=O)C(=O)N[C@@H](CC(=O)O)C(=O)N[C@H](C(=O)N[C@@H](Cc1c[nH]cn1)C(=O)N[C@@H](CC(N)=O)C(=O)N[C@@H](Cc1ccccc1)C(N)=O)C(C)C)C(C)C [[D-Leu^12] hPTH (1-34)NH2, (D-Leu^12)hPTH(1-34)NH2]",0.5
3,"CC[C@H](C)[C@H](NC(=O)[C@H](CCC(=O)O)NC(=O)[C@H](CO)NC(=O)[C@@H](NC(=O)[C@@H](N)CO)C(C)C)C(=O)N[C@@H](CCC(N)=O)C(=O)N[C@@H](CC(C)C)C(=O)N[C@@H](CCSC)C(=O)N[C@@H](Cc1c[nH]cn1)C(=O)N[C@@H](CC(N)=O)C(=O)N[C@@H](CC(C)C)C(=O)NCC(=O)N[C@@H](CCCCN)C(=O)N[C@@H](Cc1c[nH]cn1)C(=O)N[C@@H](CC(C)C)C(=O)N[C@@H](CC(N)=O)C(=O)N[C@@H](CO)C(=O)N[C@@H](CCSC)C(=O)N[C@@H](CCC(=O)O)C(=O)N[C@@H](CCCNC(=N)N)C(=O)N[C@H](C(=O)N[C@@H](CCC(=O)O)C(=O)N[C@@H](Cc1c[nH]c2ccccc12)C(=O)N[C@@H](CC(C)C)C(=O)N[C@@H](CCCNC(=N)N)C(=O)N[C@@H](CCCCN)C(=O)N[C@@H](CCC(N)=O)C(=O)N[C@@H](CC(C)C)C(=O)N[C@@H](CCC(N)=O)C(=O)N[C@@H](CC(=O)O)C(=O)N[C@H](C(=O)N[C@@H](Cc1c[nH]cn1)C(=O)N[C@@H](CC(N)=O)C(=O)N[C@@H](Cc1ccccc1)C(=O)O)C(C)C)C(C)C [[Gln^27] hPTH (1-34), (Gln^27)hPTH(1-34)]",2.5
4,"CC[C@H](C)[C@H](NC(=O)[C@H](CCC(=O)O)NC(=O)[C@H](CO)NC(=O)[C@@H](NC(=O)[C@@H](N)CO)C(C)C)C(=O)N[C@@H](CCC(N)=O)C(=O)N[C@@H](CC(C)C)C(=O)N[C@@H](CCSC)C(=O)N[C@@H](Cc1c[nH]cn1)C(=O)N[C@@H](CC(N)=O)C(=O)N[C@@H](CC(C)C)C(=O)N[C@H](CO)C(=O)N[C@@H](CCCCN)C(=O)N[C@@H](Cc1c[nH]cn1)C(=O)N[C@@H](CC(C)C)C(=O)N[C@@H](CC(N)=O)C(=O)N[C@@H](CO)C(=O)N[C@@H](CCSC)C(=O)N[C@@H](CCC(=O)O)C(=O)N[C@@H](CCCNC(=N)N)C(=O)N[C@H](C(=O)N[C@@H](CCC(=O)O)C(=O)N[C@@H](Cc1c[nH]c2ccccc12)C(=O)N[C@@H](CC(C)C)C(=O)N[C@@H](CCCNC(=N)N)C(=O)N[C@@H](CCCCN)C(=O)N[C@@H](CCCCN)C(=O)N[C@@H](CC(C)C)C(=O)N[C@@H](CCC(N)=O)C(=O)N[C@@H](CC(=O)O)C(=O)N[C@H](C(=O)N[C@@H](Cc1c[nH]cn1)C(=O)N[C@@H](CC(N)=O)C(=O)N[C@@H](Cc1ccccc1)C(N)=O)C(C)C)C(C)C [[D-Ser^12] hPTH (1-34)NH2, (D-Ser^12)hPTH(1-34)NH2]",0.8
5,"CC[C@H](C)[C@H](NC(=O)[C@H](CCC(=O)O)NC(=O)[C@H](CO)NC(=O)[C@@H](NC(=O)C(C)(C)N)C(C)C)C(=O)N[C@@H](CCC(N)=O)C(=O)N[C@@H](CC(C)C)C(=O)N[C@@H](CCSC)C(=O)N[C@@H](Cc1c[nH]cn1)C(=O)N[C@@H](CC(N)=O)C(=O)N[C@@H](CC(C)C)C(=O)NCC(=O)N[C@@H](CCCCN)C(=O)N[C@@H](Cc1c[nH]cn1)C(=O)N[C@@H](CC(C)C)C(=O)N[C@@H](CC(N)=O)C(=O)N[C@@H](CO)C(=O)N[C@@H](CCSC)C(=O)N[C@@H](CCC(=O)O)C(=O)N[C@@H](CCCNC(=N)N)C(=O)N[C@H](C(=O)N[C@@H](CCC(=O)O)C(=O)N[C@@H](Cc1c[nH]c2ccccc12)C(=O)N[C@@H](CC(C)C)C(=O)N[C@@H](CCCNC(=N)N)C(=O)N[C@@H](CCCCN)C(=O)N[C@@H](CCCCN)C(=O)N[C@@H](CC(C)C)C(=O)N[C@@H](CCC(N)=O)C(=O)N[C@@H](CC(=O)O)C(=O)N[C@H](C(=O)N[C@@H](Cc1c[nH]cn1)C(=O)N[C@@H](CC(N)=O)C(=O)N[C@@H](Cc1ccccc1)C(=O)O)C(C)C)C(C)C [[Aib^1] hPTH (1-34), (Aib^1)hPTH(1-34)]",1.7
6,"CC[C@H](C)[C@H](NC(=O)[C@H](CCC(=O)O)NC(=O)[C@H](CO)NC(=O)[C@@H](NC(=O)[C@@H](N)CO)C(C)C)C(=O)N[C@@H](CCC(N)=O)C(=O)N[C@@H](CC(C)C)C(=O)N[C@@H](CCSC)C(=O)N[C@@H](Cc1c[nH]cn1)C(=O)N[C@@H](CC(N)=O)C(=O)N[C@@H](CC(C)C)C(=O)NCC(=O)N[C@@H](CCCCN)C(=O)N[C@@H](Cc1c[nH]cn1)C(=O)N[C@@H](CC(C)C)C(=O)N[C@@H](CC(N)=O)C(=O)N[C@@H](CO)C(=O)N[C@@H](CCSC)C(=O)N[C@@H](CCC(=O)O)C(=O)N[C@@H](CCCNC(=N)N)C(=O)N[C@H](C(=O)N[C@@H](CCC(=O)O)C(=O)N[C@@H](Cc1c[nH]c2ccccc12)C(=O)N[C@@H](CC(C)C)C(=O)N[C@@H](CCCNC(=N)N)C(=O)N[C@@H](CCCCN)C(=O)N[C@@H](CC(C)C)C(=O)N[C@@H](CC(C)C)C(=O)N[C@@H](CCC(N)=O)C(=O)N[C@@H](CC(=O)O)C(=O)N[C@H](C(=O)N[C@@H](Cc1c[nH]cn1)C(=O)N[C@@H](CC(N)=O)C(=O)N[C@@H](Cc1ccccc1)C(=O)O)C(C)C)C(C)C [[Leu^27] hPTH (1-34), (Leu^27)hPTH(1-34)]",1.2
7,"(Arg^19,21)hPTH(1-34)NH2 [[Arg^13, 21] hPTH (1-34)NH2]",0.9
8,"CC[C@H](C)[C@H](NC(=O)[C@H](CCC(=O)O)NC(=O)[C@H](CO)NC(=O)[C@@H](NC(=O)[C@@H](N)CO)C(C)C)C(=O)N[C@@H](CCC(N)=O)C(=O)N[C@@H](CC(C)C)C(=O)N[C@@H](CCSC)C(=O)N[C@@H](Cc1c[nH]cn1)C(=O)N[C@@H](CC(N)=O)C(=O)N[C@@H](CC(C)C)C(=O)NCC(=O)N[C@@H](CCCCN)C(=O)N[C@@H](Cc1c[nH]cn1)C(=O)N[C@@H](CC(C)C)C(=O)N[C@@H](CC(N)=O)C(=O)N[C@@H](CO)C(=O)N[C@@H](CCSC)C(=O)N[C@@H](CCC(=O)O)C(=O)N[C@@H](CCCNC(=N)N)C(=O)N[C@H](C(=O)N[C@@H](CCC(=O)O)C(=O)N[C@@H](Cc1c[nH]c2ccccc12)C(=O)N[C@@H](CC(C)C)C(=O)N[C@@H](CCCNC(=N)N)C(=O)N[C@@H](Cc1c[nH]cn1)C(=O)N[C@@H](CCCCN)C(=O)N[C@@H](CC(C)C)C(=O)N[C@@H](CCC(N)=O)C(=O)N[C@@H](CC(=O)O)C(=O)N[C@H](C(=O)N[C@@H](Cc1c[nH]cn1)C(=O)N[C@@H](CC(N)=O)C(=O)N[C@@H](Cc1ccccc1)C(N)=O)C(C)C)C(C)C [[His^26] hPTH (1-34)NH2, (His^26)hPTH(1-34(NH2]",0.9
